Measurements as given in ChEMBL document CHEMBL4627246, “Pyroglutamide-Based P2X7 Receptor Antagonists Targeting Inflammatory Bowel Disease” (J Med Chem, 2020).

How the values were obtained:
Assay type in all cases: cell-based
U-251 = test: Cytotoxicity against human U251 cells assessed as effect on cell growth at 10 uM incubated for 48 hrs by sulforhodamine B assay; conditions: u-251, 48 h
M14 = test: Cytotoxicity against human M14 cells assessed as effect on cell growth at 10 uM incubated for 48 hrs by sulforhodamine B assay; conditions: m14, 48 h
RPMI-8226 = test: Cytotoxicity against human RPMI8226 cells assessed as effect on cell growth at 10 uM incubated for 48 hrs by sulforhodamine B assay; conditions: rpmi-8226, 48 h
OVCAR-4 = test: Cytotoxicity against human OVCAR4 cells assessed as effect on cell growth at 10 uM incubated for 48 hrs by sulforhodamine B assay; conditions: ovcar-4, 48 h
PC-3 = test: Cytotoxicity against human PC3 cells assessed as effect on cell growth at 10 uM incubated for 48 hrs by sulforhodamine B assay; conditions: pc-3, 48 h
HCT-15 = test: Cytotoxicity against human HCT15 cells assessed as effect on cell growth at 10 uM incubated for 48 hrs by sulforhodamine B assay; conditions: hct-15, 48 h
MOLT-4 = test: Cytotoxicity against human MOLT4 cells assessed as effect on cell growth at 10 uM incubated for 48 hrs by sulforhodamine B assay; conditions: molt-4, 48 h
Malme-3M = test: Cytotoxicity against human MALME-3M cells assessed as effect on cell growth at 10 uM incubated for 48 hrs by sulforhodamine B assay
SW-620 = test: Cytotoxicity against human SW620 cells assessed as effect on cell growth at 10 uM incubated for 48 hrs by sulforhodamine B assay; conditions: sw-620, 48 h
ACHN = test: Cytotoxicity against human ACHN cells assessed as effect on cell growth at 10 uM incubated for 48 hrs by sulforhodamine B assay
NCI-H322M = test: Cytotoxicity against human NCI-H322M cells assessed as effect on cell growth at 10 uM incubated for 48 hrs by sulforhodamine B assay
SF-268 = test: Cytotoxicity against human SF268 cells assessed as effect on cell growth at 10 uM incubated for 48 hrs by sulforhodamine B assay; conditions: sf-268, 48 h
HL-60(TB) = test: Cytotoxicity against human HL-60(TB) cells assessed as effect on cell growth at 10 uM incubated for 48 hrs by sulforhodamine B assay
CCRF-CEM = test: Cytotoxicity against human CCRF-CEM cells assessed as effect on cell growth at 10 uM incubated for 48 hrs by sulforhodamine B assay
CAKI-1 = test: Growth inhibition of human Caki1 cells assessed as growth percentage at 10 uM incubated for 48 hrs by sulforhodamine B assay; conditions: caki-1, 48 h
NCI-H23 = test: Cytotoxicity against human NCI-H23 cells assessed as effect on cell growth at 10 uM incubated for 48 hrs by sulforhodamine B assay; conditions: nci-h23, 48 h
MDA-MB-231 = test: Cytotoxicity against human MDA-MB-231 cells assessed as effect on cell growth at 10 uM incubated for 48 hrs by sulforhodamine B assay; conditions: mda-mb-231, 48 h
SNB-75 = test: Cytotoxicity against human SNB75 cells assessed as effect on cell growth at 10 uM incubated for 48 hrs by sulforhodamine B assay; conditions: snb-75, 48 h
HOP-92 = test: Cytotoxicity against human HOP92 cells assessed as effect on cell growth at 10 uM incubated for 48 hrs by sulforhodamine B assay; conditions: hop-92, 48 h
IGROV-1 = test: Cytotoxicity against human IGROV1 cells assessed as effect on cell growth at 10 uM incubated for 48 hrs by sulforhodamine B assay; conditions: igrov-1, 48 h

Measured: Activity

O=C(NCc1ccc(Cl)cc1Cl)[C@@H]1CCC(=O)N1C(c1ccccc1)c1ccccc1
Non-Toxic: all assays above

COc1ccc(NC(=O)[C@@H]2C/C(=C\N(C)C)C(=O)N2)cc1
Non-Toxic: all assays above

Cc1ccc(NC(=O)[C@@H]2CCC(=O)N2c2ccccc2)cc1
Non-Toxic: all assays above

O=C1N[C@H](C(=O)NCc2ccc(Cl)cc2Cl)C/C1=N\O (stereo in doubt)
Non-Toxic: all assays above

N#Cc1ccc(N2C(=O)CC[C@H]2C(=O)NCc2ccc(Cl)cc2Cl)cc1
Non-Toxic: all assays above

CN(C)/C=C1\C[C@@H](C(=O)NCc2ccc(Cl)cc2Cl)N(c2cccs2)C1=O
Non-Toxic: all assays above

O=C(NCc1ccc(Cl)cc1Cl)[C@@H]1CCC(=O)N1c1ccc(Cl)cc1Cl
Non-Toxic: all assays above

COc1cc(CN/C=C2\C[C@@H](C(=O)NCc3ccc(Cl)cc3Cl)NC2=O)cc(OC)c1OC
Non-Toxic: all assays above

O=C(NCc1ccccc1)[C@@H]1CCC(=O)N1Cc1ccc(Cl)cc1Cl
Non-Toxic: all assays above
